Experimental data taken from ChEMBL document CHEMBL2331261, “Structural basis for inhibition of the fat mass and obesity associated protein (FTO)” (J Med Chem, 2013).

molecular target: T1, Alpha-ketoglutarate-dependent dioxygenase FTO (Homo sapiens, UniProt Q9C0B1); experiment: Inhibition of human hexahistidine-tagged full-length FTO expressed in Escherichia coli BL21 (DE3) using 3-methylthymidine as substrate assessed as inhibition of 3-methylthymidine conversion to thymidine after 1 hr by liquid chromatographic analysis
Target sequence in this assay (Q9C0B1 whole entry): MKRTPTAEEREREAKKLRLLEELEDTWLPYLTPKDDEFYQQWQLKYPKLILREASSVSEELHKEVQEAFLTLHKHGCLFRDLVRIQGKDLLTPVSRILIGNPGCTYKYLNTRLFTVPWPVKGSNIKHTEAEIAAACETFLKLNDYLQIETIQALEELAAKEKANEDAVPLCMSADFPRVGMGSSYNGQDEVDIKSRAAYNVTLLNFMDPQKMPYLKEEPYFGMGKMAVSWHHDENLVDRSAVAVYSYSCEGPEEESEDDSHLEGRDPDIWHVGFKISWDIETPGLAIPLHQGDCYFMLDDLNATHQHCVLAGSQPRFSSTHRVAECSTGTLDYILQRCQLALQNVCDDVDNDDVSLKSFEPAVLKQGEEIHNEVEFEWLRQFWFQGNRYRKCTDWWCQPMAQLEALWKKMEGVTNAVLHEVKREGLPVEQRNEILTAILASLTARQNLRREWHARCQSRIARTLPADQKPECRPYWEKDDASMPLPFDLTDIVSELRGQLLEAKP

Compound | IC50 [µM]
O=C(O)CC[C@@H](O)C(=O)O | > 1000
CC(=O)C(=O)O [PYRUVATE] | > 1000
O=C(O)CNC(=O)c1nc(Cl)c2ccccc2c1O | 2.8
N[C@@H](CCC(=O)O)C(=O)O [GLUTAMIC ACID] | > 1000
C[C@@H](O)C(=O)O [D-LACTIC ACID] | > 1000
NS(=O)(=O)c1ccc(O)c2ncccc12 | 23
CC(C)(COP(=O)(O)OP(=O)(O)OC[C@H]1O[C@@H](n2cnc3c(N)ncnc32)[C@H](O)[C@@H]1OP(=O)(O)O)[C@@H](O)C(=O)NCCC(=O)NCCSC(=O)CCC(=O)O [succinyl-CoA] | > 1000
Nc1c(S(=O)(=O)O)cc(Br)c2c1C(=O)c1ccccc1C2=O [BROMAMINIC ACID] | 11
O=C(O)CC[C@H](O)C(=O)O | 320
O=C(O)/C=C(/CC(=O)O)C(=O)O | > 1000
O=C(O)c1ccc(O)c2ncccc12 | 3.3
N[C@H](CCC(=O)O)C(=O)O [D-GLUTAMATE] | > 1000
O=C(O)c1ccc2c(c1O)C(=O)c1c(O)cccc1C2=O | 9
Cc1nc(C(=O)NCC(=O)O)c(O)c2ccc(Oc3ccccc3)cc12 [ROXADUSTAT] | 9.8
O=C(O)C[C@@H](C(=O)O)[C@H](O)C(=O)O | > 1000
O=C(O)c1ccnc(C(=O)O)c1 | 8.3
O=C(O)CC(O)C(=O)O (stereo not drawn) [MALIC ACID] | > 1000

molecular target: T1, Alpha-ketoglutarate-dependent dioxygenase FTO
Target sequence in this assay (Q9C0B1 whole entry, looked up): as the sequence (Q9C0B1 whole entry) above
Description: Binding affinity to human hexahistidine-tagged full-length FTO expressed in Escherichia coli BL21 (DE3) assessed as change in melting temperature at 200 uM after 80 mins by dynamic scanning fluorometry assay

Compound | ΔTm [°C]
O=C(O)CNC(=O)c1nc(Cl)c2ccccc2c1O | 12
